Results filed as inconclusive are left out.
These compounds were tested on M. tuberculosis H37Rv growth inhibition, 7H9 media (assay: M. tuberculosis growth inhibition, HTS (AID 449762;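 further: bacterial growth assessed after seven days of incubation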)). Conditions: not given.

First: Cc1ccsc1/C=C1\SC(N2CCOCC2)=NC1=O
Second: Cc1ccc(Cl)cc1N1CCN(Cc2nc3ccsc3c(=O)[nH]2)CC1
The IC50 of the first is 3.8-fold lower: 21.9 µM for the first, 83.1 µM for the second.

First: COC(=O)c1cc(-c2cccc(OC)c2)on1
Second: COc1ccc(-c2cc3nc(CCl)[nH]c(=O)c3s2)cc1
The IC50 of the first is 2.4-fold lower: 0.37 µM for the first, 0.88 µM for the second. The first is the more potent here.

Going from `O=C(N/N=C\C=C\c1ccc([N+](=O)[O-])o1)c1cccs1` to `O=C(Nc1cc(C(F)(F)F)ccc1-n1cncn1)c1ccc([N+](=O)[O-])o1`, the IC50 rises from 0.59 µM to 9.55 µM (16-fold). The first is the more potent here.

First: C/C(=N\NC(=O)CC(C)C)c1c(C(F)(F)F)[nH]n(-c2nc3ccccc3s2)c1=O
Second: Cc1cc(C)n(-c2nc(Nc3ccccc3C(F)(F)F)nc(-n3nc(C)cc3C)n2)n1
The IC50 of the first is 65-fold higher: 42.4 µM for the first, 0.65 µM for the second. The second is the more potent here.

First: COCCOC(=O)c1ccc(NC(=O)COc2ccc([N+](=O)[O-])cc2)cc1
Second: CC(=O)c1c(C)n(C)c2ccc(OC(=O)c3ccc([N+](=O)[O-])cc3)cc12
The IC50 of the first is 7.4-fold higher: 83 µM for the first, 11.2 µM for the second.

First: COc1ccccc1NC(=O)c1ccc(NC(=O)CSc2nnnn2C)cc1
Second: CSc1ccc(NC(=O)Nc2cccn(Cc3ccccc3)c2=O)cc1
The IC50 of the first is 6.4-fold lower: 2.89 µM for the first, 18.5 µM for the second. The first is the more potent here.

`Cc1ccc(-c2nc3ccsc3c(=O)o2)cc1` and `CCCOC(=O)c1ccc(-c2ccc(C=O)o2)cc1` are within 1.5-fold of each other in IC50: 0.61 µM for the first, 0.82 µM for the second.

Compared with `O=C(COC(=O)c1cccs1)c1ccccc1`, `COC(=O)CCCCC1SCC(NC(=O)c2ccccc2)C1=O` (configuration not stated) is 5.1-fold lower in IC50: 45 µM for the first, 8.79 µM for the second.

`COc1cc(OC)cc(-c2cc3nc(C)c(CCC(=O)NC(C)CCc4ccco4)c(C)n3n2)c1` (configuration not stated) and `Cc1cc(C)cc(NC(=O)CCc2ccc(C)o2)c1` are within 1.5-fold of each other in IC50: 44.3 µM for the first, 43 µM for the second.

First: CCCCCc1ccc(-c2cn(Cc3cccc(OC)c3)nn2)cc1
Second: COc1ccc(-c2cc3n(n2)CCc2nc4ccccc4n2-3)cc1
The IC50 of the first is 20-fold higher: 20.7 µM for the first, 1.06 µM for the second. The second is the more potent here.

First: CCC(=O)Nc1nc2ccccc2n1Cc1ccc(Cl)cc1
Second: CC(C)(C)c1ccc(Cn2c(=N)n(CC(O)c3ccco3)c3ccccc32)cc1 (configuration not stated)
The IC50 of the first is lower: under 0.2 µM for the first, 17.6 µM for the second. The first is the more potent here.

Going from `Cc1nn(CCc2nn[nH]n2)c2nc(-c3ccc(Br)cc3)cc(C(F)(F)F)c12` to `CCOc1ccc(-c2nn3c(-c4ccccc4)nnc3s2)cc1`, the IC50 rises from 4.64 µM to 29.2 µM (6.3-fold). The first is the more potent here.

`CSC1=NC(C)(C)C=C(/C=C/c2ccc(Cl)cc2)N1` and `Cc1nn(-c2ccccc2)c(N)c1N=Nc1ccc(Cl)cc1` are within 1.5-fold of each other in IC50: 21.5 µM for the first, 27.3 µM for the second.

Compared with `O=C(Nc1nc(-c2cc(Cl)sc2Cl)cs1)c1cccs1`, `CC1Cc2ccccc2N1C(=S)NC(=O)c1ccc(Cl)cc1Cl` (configuration not stated) is 4.1-fold lower in IC50: 29.3 µM for the first, 7.13 µM for the second.

Compared with `NCCCn1c(C(=O)c2ccc(Cl)cc2)c2ccc([N+](=O)[O-])cc2[n+]1[O-]`, `CC1CN(c2ccc([N+](=O)[O-])c(NCCOc3ccc(Cl)cc3)c2)CC(C)N1` (configuration not stated) is 2.6-fold lower in IC50: 23.9 µM for the first, 9.19 µM for the second. The second is the more potent here.

Going from `CC1CCN(C(=O)C2CCN(c3nnc(-n4cccc4)s3)CC2)CC1` to `CN(CCCC1CCCC1)C(=O)CCc1nnc(-c2ccccc2)o1`, the IC50 rises from 2.96 µM to 7.31 µM (2.5-fold). The first is the more potent here.

Compared with `CN1C(=O)N(C)c2ccc(C=O)c3cccc1c23`, `COC1=CC(=O)c2ccccc2C1=O` is 2.6-fold lower in IC50: 41 µM for the first, 16 µM for the second. The second is the more potent here.

Going from `CSCCC1NC(=O)N(CC(=O)N2N=C(c3ccc(Cl)cc3)CC2c2ccco2)C1=O` (configuration not stated) to `CC(C)(C)c1ccc(-c2nc3[nH]c(=O)cc(NC(=O)c4ccco4)n3n2)cc1`, the IC50 rises from 10.5 µM to 74.4 µM (7.1-fold). The first is the more potent here.

Going from `c1ccc(CN2CCN(CCCNc3ccc4nnc(-c5ccccc5)n4n3)CC2)cc1` to `c1ccc(C[C@H]2CN=C(Nc3ccccc3)N2CCCC2CCCC2)cc1`, the IC50 rises from 19.4 µM to 31.4 µM (1.6-fold).

First: CC(Oc1cc2oc(=O)c3c(c2cc1Cl)CCCC3)C(=O)NCc1ccccn1 (configuration not stated)
Second: O=C(Nc1nc2c(s1)CCCC2)c1cc(-c2ccc3c(c2)OCO3)nc2ccccc12
The IC50 of the first is 8.8-fold lower: 7.47 µM for the first, 66 µM for the second. The first is the more potent here.

`COc1cc2[nH]c3c(N4CCN(c5ccccn5)CC4)ncnc3c2cc1OC` and `COc1cc2nc(N3CCN(c4cc(C)ccc4C)CC3)nc(N)c2cc1OC` are within 1.5-fold of each other in IC50: 13.6 µM for the first, 13.8 µM for the second.

First: NC(=S)N/N=C/c1ccccc1OCCSc1ccc(Cl)cc1
Second: c1ccc(-c2ccccc2OCCCCn2ccnc2)cc1
The IC50 of the first is 3.6-fold higher: 45.7 µM for the first, 12.8 µM for the second. The second is the more potent here.

First: O=[N+]([O-])c1ncccc1Oc1nc(-c2cccnc2)nc2ccccc12
Second: NC(=O)N=Nc1c2[nH]c3ccccc3nc-2c2ccccc12
The IC50 of the first is lower: under 0.2 µM for the first, 4.36 µM for the second.

First: CSc1ccc(C(=O)C2CCCN(C(=O)c3ccc4c(c3)no[n+]4[O-])C2)cc1 (configuration not stated)
Second: Cc1ccc(C(=O)c2cc(C)sc2NC(=O)CN2CCN(C(=O)c3ccco3)CC2)cc1
The IC50 of the first is 7.1-fold lower: 0.54 µM for the first, 3.81 µM for the second.

Compared with `ClCc1nc2ccccc2c2ccccc12`, `O=c1cc(/C=C/c2ccccc2)oc2ccccc12` is 5.8-fold higher in IC50: 6.3 µM for the first, 36.4 µM for the second. The first is the more potent here.

First: COC(=O)C1=C(c2ccc(OCc3ccccc3)cc2)C[C@@H]2CC[C@H]1N2C(=O)NC1CCN(Cc2ccccc2)CC1
Second: c1ccc(CN2CCC3(CCCc4ccccc43)CC2)cc1
The IC50 of the first is 2.4-fold higher: 24.4 µM for the first, 10.3 µM for the second. The second is the more potent here.

First: N#CC1=C(c2ccccc2)/C(=C/c2ccccc2)OC1=O
Second: O=C(CCN1C(=O)/C(=C/c2ccccc2)SC1=S)Nc1ccccn1
The IC50 of the first is 8.8-fold lower: 10.2 µM for the first, 89.9 µM for the second.

`O=C(Nc1ccc(Cl)cc1)N(C1=NCCC1)c1ccc(OC(F)F)cc1` and `COc1ccc(NC(=O)CN(C)CC(=O)Nc2sc3c(c2C(N)=O)CCC3)cc1` are within 1.5-fold of each other in IC50: 35 µM for the first, 49.9 µM for the second.

Compared with `Cc1cc(C)c2ccc(NN)nc2c1O`, `Cc1ccc2nc(/N=C(\N)NC(=O)NC3CCCCC3)nc(C)c2c1` is 1.6-fold lower in IC50: 3.6 µM for the first, 2.22 µM for the second.

First: Cc1cc(C)nc(Sc2ncnc(N)c2[N+](=O)[O-])n1
Second: CC1(C)CC(=O)C2=C(C1)OC(N)=C([N+](=O)[O-])C2c1ccc(C#N)s1 (configuration not stated)
The IC50 of the first is 7.8-fold lower: 7.98 µM for the first, 62.2 µM for the second.

Going from `c1ccc2nc(-c3ccc(-n4ccnc4)cc3)ccc2c1` to `Cc1ccccc1N/N=C/c1c(C)nc2ccccn12`, the IC50 rises from 23.5 µM to 47.1 µM (2-fold).

First: Cc1cc(C2=NNC(=NC3CCCCC3)SC2)c(C)n1-c1c(C)n(C)n(-c2ccccc2)c1=O
Second: CCOc1[nH]n(-c2ccccc2)c(=O)c1C=Nc1ccc(OC)cc1
The IC50 of the first is 2.4-fold higher: 88.2 µM for the first, 36.5 µM for the second. The second is the more potent here.

First: CC(Oc1ccc2ccccc2c1)C(=O)NNC(=S)NC(=O)c1ccco1 (configuration not stated)
Second: Cc1c(C(=O)Nc2nc3ccccc3[nH]2)oc2c(Cl)cccc12
The IC50 of the first is 11-fold lower: 6.06 µM for the first, 68 µM for the second.

`COc1ccc(C(C[N+](=O)[O-])c2c(-c3ccccc3)cc3ccccn23)c(OC)c1` (configuration not stated) and `COc1ccccc1OC(=O)c1ccc(S(=O)(=O)N(C)C)cc1` are within 1.5-fold of each other in IC50: 14.9 µM for the first, 9.96 µM for the second.

First: CCCCCCOC(=O)C(C#N)c1nc2ccccc2nc1N1CCN(CC)CC1 (configuration not stated)
Second: CCN1CCN(c2oc(COc3ccc(-c4ccccc4)cc3)nc2C#N)CC1
The IC50 of the first is 2.2-fold lower: 20.1 µM for the first, 43.4 µM for the second.

Going from `O=C(Cn1ncc(Cl)c(Cl)c1=O)c1ccc2c(c1)OCCO2` to `O=C(NCc1ccc2c(c1)OCO2)c1c(O)nc2sccn2c1=O`, the IC50 rises from 6.83 µM to 40 µM (5.9-fold). The first is the more potent here.

First: O=C(CSc1nn(-c2ccc(F)cc2)c(=S)s1)NCC1CCCO1 (configuration not stated)
Second: O=C(OCn1ncc(Br)c(Br)c1=O)c1ccc(F)cc1
The IC50 of the first is 5.2-fold higher: 6.13 µM for the first, 1.17 µM for the second. The second is the more potent here.

Going from `C/C(=N\NC(N)=S)C1C2C3CC4C5CC(C42)C1C53` (configuration not stated) to `O=C(NCc1ccccn1)C(=O)Nc1nc(C23CC4CC(CC(C4)C2)C3)cs1`, the IC50 falls from 28.1 µM to 1.75 µM (16-fold).

Going from `Cc1ccccc1N1CCN(c2ncnc3c2cnn3Cc2ccc(Cl)cc2)CC1` to `Cc1cc(Br)ccc1NC(=O)c1cnc(N2CCN(c3ccccn3)CC2)c2ccccc12`, the IC50 falls from 5.12 µM to 1.24 µM (4.1-fold).

Compared with `Cc1cc(NC(=O)CCl)no1`, `CCCCC(=O)/C=C/n1c(=S)oc2ccccc21` is 22-fold higher in IC50: 1.31 µM for the first, 28.2 µM for the second. The first is the more potent here.

First: CCN(CC)S(=O)(=O)c1ccc2[nH]cc(C(=O)NCCC3=CCCCC3)c(=O)c2c1
Second: Cc1ccc2[nH]c(C)c(CCNC(=O)c3cc4cc([N+](=O)[O-])ccc4oc3=O)c2c1
The IC50 of the first is 4.8-fold higher: 40.7 µM for the first, 8.49 µM for the second. The second is the more potent here.

First: Cn1ccc(=Nc2ccc(NC(=O)c3ccc(N=c4ccn(C)c5ccc([N+](=O)[O-])cc45)cc3)cc2)cc1
Second: CCc1nnc(NS(=O)(=O)c2ccc(N/C=C\C(=O)c3cccc(OC)c3)cc2)s1
The IC50 of the first is lower: under 0.2 µM for the first, 16.2 µM for the second.

For `S=c1nc[nH]c2nc[nH]c12`, the IC50 was 3.08 µM.

Same assay, conditions: measured here: IC90 growth inhibition

Compared with `Cc1ccsc1/C=C1\SC(N2CCOCC2)=NC1=O`, `COC(=O)c1cc(-c2cccc(OC)c2)on1` is higher in IC90: 34.1 µM for the first, over 100 µM for the second.

From PubChem BioAssay AID449762 (Southern Research Specialized Biocontainment Screening …, 2010)
